# Test results taken from US12157869B2, “Methods and compositions for reducing persistent odor in clothing and mitigating biofilms on various materials” (priority 2019, dated 2024).
# Structures can show the parent of a compound that is named as a salt.
# Experiments:
# [1] = test system: biofilm matter in clothing; test: UV light visualization of fluorescence of suspected biofilm matter in clothing (optical brightener / Calcofluor White)
# Description: Three UV lamps were used in testing fluorescence in potential biofilms. These included a Lightfe® UV301D lamp providing a beam at 365 nm, a UVBeast V3 lamp operating at 395 nm, and a UV Nova 108-LED UV lamp operating at 395 nm.
# In one approach, biofilm candidates were stained using Calcofluor White M2R dye, a fluorescent brightener purchased from Phyto Technology Laboratories (Shawnee Mission, Kansas), CAS No. 4404-43-7. A solution was prepared of 0.074% Calcofluor white in water, and given the name CF1.
# In examining fluorescence, it was eventually noted that both an SLR camera and an iPhone camera could not easily capture the fine details of fluorescence when using any of the UV lamps available for this study, probably because the fluorescence, including some background fluorescence, may have interfered with the camera's visible light operations. […] A rubber band was sufficient for holding it in place.
# [2] = test system: persistent odor (perma-odor) in clothing; test: Odor evaluation of treated clothing by smelling (odor level on a scale of 0 to 5)
# [3] = test system: darkened regions believed to be biofilm remnants in clothing; test: Visible-light inspection of darkened or yellow regions in clothing; conditions: shirt CH1; left pit 6 g 2.1% NAC then 1.95 g E3; right pit 2.1 g E3 without NAC; about 20 min, short cycle 30°C Purex
# Source text: FIG. 10A depicts the left pit of shirt CH1 in visible light after the treatments described previously (as well as the treatment with optical brighter). A dark region 202 is still present that appears to come from within the fabric rather than resting on its surface. It is believed to come from biofilm material such as polysaccharides, proteins, and genetic material, that is capable of adhering to optical brighteners such as CF1 solution. FIG. 10B depicts the same region in UV light using the UVBeast V3 lamp. The dark region 202 of FIG. 10A is now a fluorescent region 204 with the appearance of a purple color, believed to result from Calcofluor White fluorescence couple with the dark matter's blocking of the fluorescence of the shirt material itself. […] The fluorescence in CH1 was bright enough to be detected even with the orange dye of the shirt brightly fluorescing at the same time.
compound,measurement,setting,value
O=C(O)CC(O)(CC(=O)O)C(=O)O [sodium citrate],fluorescence of previously treated pits,"[1]; shirt RA1, 12% sodium citrate solution 7 g then 1.72 g E3D, about 30°C 3 hours, Lemon Brite",only very slight improvement at best
same,reddish fluorescent zone,"[1]; shirt RA1, 12% sodium citrate solution then E3D",significant reduction
same,fluorescence of previously untreated spot,"[1]; shirt RA1, 12% sodium citrate solution then E3D, about 30°C 3 hours, also slightly smaller in extent",significantly reduced in brightness
same,fluorescence of two zones of right pit,"[1]; shirt RA1, each about 2.3 g 12% citrate solution, lower zone also 1.86 g E3D, 40-45°C two hours",only little reduction in fluorescence
"CC(=O)N[C@@H](CS)C(=O)O [NAC, N-acetyl cysteine]","odor after one work day, shirt AA left pit","[2]; 2.1% NAC and NIC, wash",remained smelling fresh
same,"odor after one work day, shirt AA right pit","[2]; 2.1% NAC, NIC and 2 g E2, wash",smell again
same,"owner's report after wash and exercise, shirt WL","[2]; left pit 4.8 g 2% NAC (pH 7.8), 2 min, 6.5 g NIC, 10 min, 5 g NIC, liquid Tide",substantial improvement
same,"odor after heavy exercise, shirt RL","[2]; right pit 2% NAC pH 7.8 then NIC, left pit NIC only, washed",strong odor
same,"odor level after washing and exercise, shirt BL right pit","[2]; right pit 2.1% NAC, EGCD-2, left pit about 2, scale of 0 to 5",~1
same,"odor after washing and exercise, shirt WL","[2]; right pit 2.1% NAC, EGCD-B, NIC",very little odor
same,"odor level after washing and exercise, shirt RL","[2]; right pit 2.1% NAC, EGCD-B, NIC, both pits about the same, scale of 0 to 5",about 2
same,"odor following exercise, shirt AB","[2]; right pit 8.2 g 2.1% NAC, 3.3 g NIC, 5.4 g LPS1, wash",smell better in general
same,"residual odor after wash, shirt RL","[2]; right pit 9.1 g 2% NAC pH 7.8, 11 min, 5.8 g NIC, left pit 10 g NIC only",appeared to have been eliminated
same,odor level after washing and drying,"[2]; shirt BD1 right pit, 5.2 g 2.1% NAC (pH 4) then 2.9 g E3C, Purex, about 3 before, untreated left pit about 1, scale of 1 to 5",0
same,odor after handwash and air drying,"[2]; shirt CH1, right pit 3.2% NAC solution (2 g outside and inside), 2 min, then NIC 4.83 g, left pit NIC only 7.4 g, 5 min",smelled better than the left
same,odor intensity after exercise and 48 hours storage at room temperature,"[2]; shirt CH1, right pit second treatment: 8 ml NAC solution (600 mg effervescent tablet in 100 ml) then 5.3 ml EGCD-A, 20 min, left pit earlier NIC only, 0 to 5 scale",2 to 3
same,"odor rating after further exercise, left pit","[2]; shirt CH1 left pit, 10 g 2% NAC solution 10 min, 9 g NIC 15 min, rinse, wash (Bright Blue Moon), scale 0 to 5",2 to 3
same,odor after exercise relative to left pit,"[2]; shirt CH1 right pit, 2% NAC solution, washed, odor level about 5 before",significantly reduced
same,odor level after washing,"[2]; shirt CH1 right pit, 2.4 g pH 3.0 NAC solution, 5 min, short cycle with Bright Blue Moon, scale of 0 to 5",about 0.5
same,odor after handwash and drying,"[2]; shirt CH1 right pit, 21 g 2% NAC solution, 5.94 g EGCD-A, 10 min, 7 g NIC, about 10 min",no odor
same,"odor rating after further exercise, right pit","[2]; shirt CH1 right pit, earlier NAC, EGCD-A and NIC treatments, scale 0 to 5",about 1
same,odor after washing and air drying,"[2]; shirt Dec1 right pit, 1.6 g of 1.8% NAC solution (pH about 2), then standard wash with Bright Blue Moon enzymatic detergent",some odor
same,odor of treated pits after wash,"[2]; shirts AA, AB, AC, 2.1% NAC solution, about 10 min, then NIC (some pits also E2 or LPS1), 15 min, wash with Bright Blue Moon, versus untreated pits or pits without NAC",smelled better than before
same,odor after washing,"[2]; shirts RL, BL, WL right pits, 2.1% NAC solution 12-13.5 g, then EGCD-B or EGCD-2, then NIC (RL, WL), owner's report",significantly reduced odor
same,fluorescent zones after wash,"[1]; shirt BD1, right pit 2.1% NAC (pH 4) then E3C",slightly decreased in intensity
same,intensity of fluorescent zones after wash,"[1]; shirt BD1, right pit 5.2 g 2.1% NAC pH 6.4 then 3.0 g E3D, left pit water then 3.28 g E3D, about 33°C 2 hours, full cycle 40°C Tide",may have decreased slightly
same,"fluorescence after CF1 staining, left pit","[1]; shirt CH1, 2.1% NAC then E3, wash, Lightfe UV301D 365 nm",perhaps weaker than initially seen
same,fluorescence after wash,"[1]; shirt RA1, left pit 4.54 g 2.1% NAC then 10.7 g E3D, right pit 9.2 g E3D only, about 33°C 2 hours, short cycle 30°C Purex",significant reduction in fluorescence
same,"residual fluorescence, lower versus upper half of left pit","[1]; shirt RA1, lower half 2.15% NAC (pH 6.4 and 9.17), upper half water, both CellulaseC 5.6 g and AmylaseA 1.94 g, about 28°C 30 min",declined more strongly
same,darkened regions after wash,[3],perhaps slightly lighter
